Source: patent US6383766B1, “Reduced cortisol conjugates” (Ortho-Clinical Diagnostics, Inc., priority 1998, dated 2002)

What was measured:
[1] = test system: biotinylated sheep anti-cortisol gamma globulin (anti-cortisol antibody); test: VITROS ECi chemiluminescence competitive immunoassay, cross-reactivity (50% displacement of HRP-labeled conjugate); format: binding; settings: cortisol conc. displacing 50% / cross-reactant conc. displacing 50% x 100; for Percent Cross-Reactivity, HRP-RC Invention Label: HRP labeled reduced cortisol-3-CMO-BSA (HRP-RC) as label; for Percent Cross-Reactivity, HRP-NRC Comparative Label: comparative HRP labeled nonreduced cortisol conjugate (HRP-NRC) as label
Experimental: Evaluation of the HRP labeled reduced cortisol-3-CMO-BSA (hereinafter referred to as HRP-RC conjugate) was evaluated using an Ortho-Clinical Diagnostic VITROS ECi chemiluminesence-based assay methodology.
100 ng/mL reduced cortisol-3-CMO-BSA-HRP (or 20 ng/mL of a comparative HRP-cortisol conjugate label, which is not a conjugate label of the present invention, but which was carried through the same procedures as the label of the invention except for the reduction step)
1.5 μg/mL biotinylated sheep anti-cortisol gamma globulin
An aliquot (75 μL) of anti-cortisol biotinylated sheep antibody, 30 μL of sample, serum comprising cortisol or a steroid structurally similar to cortisol (below), and 75 μL of HRP-RC conjugate were added to an VITROS ECi sample container to which strepavidin had been prebound. The solution was incubated at 37° C. for 30 minutes, then washed using the above-indicated wash reagent.
A 200 μL aliquot of the above-indicated signal reagent solution (100 μL of part A and 100 μL of part B combined just prior to use) was then added to the sample container. The solution was incubated for 5 minutes at 37° C., and the chemiluminesence intensity was then determined.
The above method was used to determine the concentration of potential cross reactant (steroid that is structurally similar to cortisol: 11-deoxycortisol, prednisolone, corticosterone and cortisone) that displaced fifty percent of a fixed amount of a comparative HRP labeled cortisol conjugate (nonreduced cortisol, HRP-NRC) or HRP-RC conjugate bound to a fixed amount of anti-cortisol antibody.
Varied levels of the potential cross reactant were added to sample containers containing either the comparative labeled cortisol conjugate (nonreduced cortisol, HRP-NRC) or HRP-RC conjugate of the instant invention, as described above.
The concentration of cross reactant resulting in a light signal measurement corresponding to 50% of the maximum attainable (all conjugate displaced) was determined and used to calculate the percent cross reactivity as described below and whose results are listed in Table 1.
Percent cross-reactivity is defined as The concentration of cortisol that displaced 50% of the HRP-NRC comparative conjugate (or the HRP-RC conjugate) divided by the concentration of cross-reactant that displaced 50% of the HRP-NRC comparative conjugate (or the HRP-RC conjugate) multiplied by 100 as determined per the assay method described hereinabove.

anti-cortisol antibody = settings: prior art commercial cortisol assays; cited from earlier work

Question: Which “Percent Cross-Reactivity, HRP-RC Invention Label” value [1] does the source give for `C[C@]12C[C@H](O)[C@H]3[C@@H](CCC4=CC(=O)CC[C@@]43C)[C@@H]1CC[C@@H]2C(=O)CO` [corticosterone] here?
Answer: 3.3%

Question: What about the “Percent Cross-Reactivity, HRP-NRC Comparative Label” value [1] of the same compound?
Answer: 4.4%

Question: Which results are given for `C[C@]12CCC(=O)C=C1CC[C@@H]1[C@@H]2CC[C@@]2(C)[C@H]1CC[C@]2(O)C(=O)CO` [11-deoxycortisol]?
Answer: cross-reactivity in commercial cortisol assays (anti-cortisol antibody): greater than 10%; Percent Cross-Reactivity, HRP-RC Invention Label [1]: 2.2%; Percent Cross-Reactivity, HRP-NRC Comparative Label [1]: 28.4%

Question: For `C[C@]12CCC(=O)C=C1CC[C@@H]1[C@@H]2[C@@H](O)C[C@@]2(C)[C@H]1CC[C@]2(O)C(=O)CO` [cortisol], which “Percent Cross-Reactivity, HRP-RC Invention Label” value [1] is on record?
Answer: 100%

Question: And the “Percent Cross-Reactivity, HRP-NRC Comparative Label” value [1]?
Answer: 100%

Question: What does the source list for `C[C@]12C=CC(=O)C=C1CC[C@@H]1[C@@H]2[C@@H](O)C[C@@]2(C)[C@H]1CC[C@]2(O)C(=O)CO` [prednisolone]?
Answer: Percent Cross-Reactivity, HRP-RC Invention Label [1]: 24.6%; Percent Cross-Reactivity, HRP-NRC Comparative Label [1]: 34.8%

Question: Which “Percent Cross-Reactivity, HRP-RC Invention Label” value [1] does the source give for `C[C@]12CCC(=O)C=C1CC[C@@H]1[C@@H]2C(=O)C[C@@]2(C)[C@H]1CC[C@]2(O)C(=O)CO` [cortisone] here?
Answer: 1.8%

Question: And the “Percent Cross-Reactivity, HRP-NRC Comparative Label” value [1]?
Answer: 5.5%
